Measurements: patent US10099993B2, “Metabotropic glutamate receptor positive allosteric modulators (PAMS) and uses thereof” (Sanford-Burnham Medical Research Institute, priority 2014, dated 2018)

Tests used:
[1] = molecular target: mGlu2 (Rattus norvegicus (Rat), UniProt P31421); experiment: mGlu2 GIRK thallium flux assay; details: for Emax: read-out: mGlu2 PAM Max; for mGlu2 PAM Max / EC50: PAM mode, mean ± SEM, at least three experiments; for mGlu2 PAM Max: % Glutamate Max; for EC50: read-out: mGlu2 PAM EC50, test compound, then EC20 glutamate […] later in the presence of thallium;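 for all read-outs here: Cell-based assay, rate of fluorescence rise right after thallium plus agonist addition read on a kinetic imaging plate reader, normalized to vehicle and maximal agonist control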
[2] = molecular target: mGlu3 (Rattus norvegicus (Rat), UniProt P31422); experiment: mGlu3 GIRK thallium flux assay; details: for Emax: read-out: mGlu3 PAM Max; for mGlu3 PAM Max / EC50: PAM mode, mean ± SEM; for mGlu3 PAM Max: % Glutamate Max; for EC50: read-out: mGlu3 PAM EC50, test compound, then EC20 glutamate […] later in the presence of thallium;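 for all read-outs here: kinetic fluorescence slope read shortly after thallium plus agonist addition, scaled between vehicle and maximal agonist control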
Sequence of mGlu3 (P31422 23-879): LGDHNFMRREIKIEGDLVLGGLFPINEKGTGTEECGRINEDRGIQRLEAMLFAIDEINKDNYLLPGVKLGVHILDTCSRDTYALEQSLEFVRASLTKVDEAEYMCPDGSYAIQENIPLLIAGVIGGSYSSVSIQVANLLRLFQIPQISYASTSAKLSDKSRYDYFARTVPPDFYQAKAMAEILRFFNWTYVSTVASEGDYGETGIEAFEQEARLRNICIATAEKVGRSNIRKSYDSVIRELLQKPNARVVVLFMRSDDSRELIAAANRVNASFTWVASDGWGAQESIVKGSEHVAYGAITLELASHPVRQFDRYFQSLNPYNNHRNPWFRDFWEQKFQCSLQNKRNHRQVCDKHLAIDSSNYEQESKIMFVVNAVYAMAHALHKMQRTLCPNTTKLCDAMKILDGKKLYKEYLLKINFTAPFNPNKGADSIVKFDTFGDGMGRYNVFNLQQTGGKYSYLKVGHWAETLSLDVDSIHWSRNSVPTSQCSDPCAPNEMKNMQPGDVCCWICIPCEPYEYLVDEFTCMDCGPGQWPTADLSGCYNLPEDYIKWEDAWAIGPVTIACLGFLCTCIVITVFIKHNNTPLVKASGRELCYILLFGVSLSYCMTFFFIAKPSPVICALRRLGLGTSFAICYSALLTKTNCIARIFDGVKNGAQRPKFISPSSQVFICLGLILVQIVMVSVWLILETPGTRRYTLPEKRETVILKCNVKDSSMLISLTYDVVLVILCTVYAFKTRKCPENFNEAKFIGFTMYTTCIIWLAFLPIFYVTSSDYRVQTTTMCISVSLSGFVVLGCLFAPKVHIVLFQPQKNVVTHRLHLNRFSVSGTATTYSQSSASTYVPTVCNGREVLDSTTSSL

Sequence of mGlu2 (P31421 19-872): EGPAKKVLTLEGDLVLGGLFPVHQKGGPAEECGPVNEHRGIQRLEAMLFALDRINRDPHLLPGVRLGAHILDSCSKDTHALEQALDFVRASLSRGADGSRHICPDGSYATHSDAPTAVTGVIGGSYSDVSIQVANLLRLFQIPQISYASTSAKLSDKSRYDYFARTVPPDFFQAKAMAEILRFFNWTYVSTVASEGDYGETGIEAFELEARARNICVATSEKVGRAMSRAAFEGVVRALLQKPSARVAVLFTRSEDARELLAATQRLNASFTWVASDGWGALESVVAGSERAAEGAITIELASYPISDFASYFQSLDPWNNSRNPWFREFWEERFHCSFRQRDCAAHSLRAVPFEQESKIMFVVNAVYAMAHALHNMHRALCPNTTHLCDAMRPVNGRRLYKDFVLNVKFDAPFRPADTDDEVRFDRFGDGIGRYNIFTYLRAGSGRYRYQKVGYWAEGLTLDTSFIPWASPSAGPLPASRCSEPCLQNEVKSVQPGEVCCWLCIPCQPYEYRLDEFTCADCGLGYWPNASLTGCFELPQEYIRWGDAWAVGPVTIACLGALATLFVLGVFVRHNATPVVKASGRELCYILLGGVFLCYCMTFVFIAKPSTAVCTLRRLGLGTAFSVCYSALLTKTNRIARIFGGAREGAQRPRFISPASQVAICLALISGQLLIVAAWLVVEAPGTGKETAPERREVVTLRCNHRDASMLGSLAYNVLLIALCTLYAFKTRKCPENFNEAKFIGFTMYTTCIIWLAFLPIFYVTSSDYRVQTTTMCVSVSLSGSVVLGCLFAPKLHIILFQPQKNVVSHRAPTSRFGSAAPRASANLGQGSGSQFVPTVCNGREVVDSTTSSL

SMILES: COc1ccc(C(=O)Nc2ccccn2)cc1OCCCCOc1ccc(C(=O)CC(C)(C)C)c(O)c1C [compound 106, 3-(4-(4-(3,3-Dimethylbutanoyl)-3-hydroxy-2-methylphenoxy)butoxy)-4-methoxy-N-(pyridin-2-yl)benzamide]
- Emax [1]: 74.8 ± 5.9%
- Emax [2]: 97.4 ± 9.4%

SMILES: COc1ccc(C(=O)N2CCN(S(C)(=O)=O)CC2)cc1OCCCCOc1ccc(C(=O)CC(C)(C)C)c(O)c1C [compound 107, 1-{2-Hydroxy-4-[4-(2-methoxy-5-{[4-(methylsulfonyl)piperazinyl]carbonyl}phenoxy)butoxy]-3-methylphenyl}-3,3-dimethylbutan-1-one]
- mGlu2 PAM Max [1]: 22.1 ± 1.1%
- EC50 [1]: > 30 µM
- mGlu3 PAM Max [2]: 22.9 ± 1.5%
- EC50 [2]: > 30 µM

SMILES: COc1ccc(C(=O)NC(C)(C)C)cc1OCCCCOc1ccc(C(=O)CC(C)(C)C)c(O)c1C [compound 108, N-(tert-Butyl)-3-(4-(4-(3,3-dimethylbutanoyl)-3-hydroxy-2-methylphenoxy)butoxy)-4-methoxybenzamide]
- EC50 [1]: > 10 µM
- Emax [1]: 38.6 ± 1.1%
- EC50 [2]: > 30 µM
- Emax [2]: 33.4 ± 5.3%

SMILES: COc1ccc(C(=O)NC2CC2)cc1OCCCCOc1ccc(C(=O)CC(C)(C)C)c(O)c1C [compound 109, N-Cyclopropyl-3-(4-(4-(3,3-dimethylbutanoyl)-3-hydroxy-2-methylphenoxy)butoxy)-4-methoxybenzamide]
- EC50 [1]: 0.765 ± 0.005 µM
- Emax [1]: 101.5 ± 0.9%
- EC50 [2]: 0.578 ± 0.012 µM
- Emax [2]: 106 ± 5.1%

SMILES: COc1ccc(C(=O)NCC(C)C)cc1OCCCCOc1ccc(C(=O)CC(C)(C)C)c(O)c1C [compound 110, 3-(4-(4-(3,3-Dimethylbutanoyl)-3-hydroxy-2-methylphenoxy)butoxy)-N-isobutyl-4-methoxybenzamide]
- EC50 [1]: 6.4 ± 0.389 µM
- Emax [1]: 48.4 ± 5.5%
- EC50 [2]: > 30 µM
- Emax [2]: 31.7 ± 8.5%

SMILES: Cc1c(OCCCCOc2ccc(CCC(=O)O)c(O)c2)ccc(C(=O)CC(C)C)c1C [compound 111]
- EC50 [1]: > 10 µM
- EC50 [2]: > 30 µM

SMILES: COc1ccc(C(=O)NC2CCCC2)cc1OCCCCOc1ccc(C(=O)CC(C)(C)C)c(O)c1C [compound 112, N-Cyclopentyl-3-(4-(4-(3,3-dimethylbutanoyl)-3-hydroxy-2-methylphenoxy)butoxy)-4-methoxybenzamide]
- EC50 [1]: > 10 µM
- Emax [1]: 35 ± 5.8%
- EC50 [2]: > 30 µM
- Emax [2]: 40.3 ± 1.6%

SMILES: COc1ccc(C(=O)NS(=O)(=O)c2ccccc2)cc1OCCCCOc1ccc(C(=O)CC(C)(C)C)c(O)c1C [compound 113, 3-(4-(4-(3,3-Dimethylbutanoyl)-3-hydroxy-2-methylphenoxy)butoxy)-4-methoxy-N-(phenylsulfonyl)benzamide]
- EC50 [1]: 0.872 ± 0.004 µM
- Emax [1]: 102 ± 2.9%
- EC50 [2]: 1.08 ± 0.021 µM
- Emax [2]: 109 ± 3.5%

SMILES: Cc1c(OCc2cccc(COc3ccc(C#N)cc3)c2)ccc(C(=O)CC(C)C)c1C [compound 115]
- EC50 [1]: > 30 µM
- EC50 [2]: > 30 µM

SMILES: COC(=O)c1ccc(OCc2cccc(COc3ccc(C(=O)CC(C)C)c(C)c3C)c2)cc1 [compound 116]
- EC50 [1]: > 30 µM
- EC50 [2]: > 30 µM

SMILES: Cc1c(OCc2cccc(COc3ccc(C#N)cc3)c2)ccc(C(=O)CC(C)C)c1O [compound 118]
- EC50 [1]: > 30 µM
- EC50 [2]: > 30 µM

SMILES: COC(=O)c1ccc(OCc2cccc(COc3ccc(C(=O)CC(C)C)c(O)c3C)c2)cc1 [compound 119]
- EC50 [1]: > 30 µM
- EC50 [2]: > 30 µM

SMILES: Cc1c(OCc2cccc(COc3ccc(C(=O)O)cc3)c2)ccc(C(=O)CC(C)C)c1C [compound 123]
- EC50 [1]: > 30 µM
- EC50 [2]: > 30 µM

SMILES: Cc1c(OCc2cccc(COc3ccc(C(=O)O)cc3)c2)ccc(C(=O)CC2CCCC2)c1C [compound 124]
- EC50 [1]: > 30 µM
- EC50 [2]: > 30 µM

SMILES: Cc1c(OCc2cccc(COc3ccc(C(=O)O)cc3)c2)ccc(C(=O)CC(C)C)c1O [compound 125]
- mGlu2 PAM Max [1]: 82.7 ± 7.2%
- EC50 [1]: 0.238 ± 0.051 µM
- mGlu3 PAM Max [2]: 13.9 ± 3.1%
- EC50 [2]: > 30 µM

SMILES: Cc1c(OCc2cccc(COc3ccc(C(=O)O)cc3)c2)ccc(C(=O)CC2CCCC2)c1O [compound 126]
- EC50 [1]: > 10 µM
- EC50 [2]: > 30 µM
